Laboratory results published in patent US20250114331A1, “CONCURRENT TARGETING OF ONCOGENIC PATHWAYS TO ENHANCE CHEMOTHERAPY AND IMMUNOTHERAPY” (THE JOHNS HOPKINS UNIVERSITY, priority 2021, published 2025).
“Also recorded” adds a separate entry of the source. Read-outs that look alike come from different tables or passages of the source.

Assays:
[1] = test system: H1299 and H1437 cells; test: Immunoblotting of YAP1, STAT3 and pSTAT3 after drug treatment; type: cell-based, human
Protocol: Western blotting. Cells were dissolved in RIPA buffer (Thermo Fisher Scientific) supplemented with proteinase inhibitor and phosphatase inhibitor cocktails (Roche, Mannheim, Germany). After total protein lysate was electrophoretically transferred onto PVDF membrane, the membrane was blocked with 5% skim milk in 0.05% TBS-Tween buffer and incubated at 4° C. overnight with a primary antibody specific to each protein. The membrane was then probed with an appropriate secondary antibody (Cell Signaling Technology, Danvers, USA). β-actin served as an endogenous control. The primary antibodies and dilution ratios were β-actin (Sigma-Aldrich; #A2228; 1:5000), NANOG (D73G4; Cell Signaling Technology; #4903; 1:1000), OCT4 (D705Z; Cell Signaling Technology; #75463; 1:500), SOX2 (EPR3131; Abcam, Cambridge, UK; #ab92494; 1:500), STAT3 (124H6; Cell Signaling Technology; #9139; 1:2000), pSTAT3 (D3A7; Cell Signaling Technology; #9145; 1:1000) and YAP1 (EP1674Y; Abcam, #ab52771; 1:2000).
To determine doses of these drugs that are effective for pathway inhibition, H1299 and H1437 cells were treated with verteporfin or S3I-201 for 72 hours.

[2] = test system: H1437 xenografts; test: H1437 xenograft treatment; type: in vivo, NSG mice; details: verteporfin 50 mg/kg i.p. three times a week; S3I-201 5 mg/kg i.p. every day
Description: For therapeutic experiments, 4- to 5-week-old NOD/SCID/IL2Ry−/− (NSG) mice were obtained from the Johns Hopkins Medical Institute's (Baltimore, MD) animal care facility. We injected H1299 cells (1×106) and H1437 cells (1×106), which were suspended in the mixture as described above, subcutaneously into both flanks. For the patient-derived xenograft (PDX) models, 13 PDX blocks (CTG0162, 0178, 0502, 0848, 1309, 1351, 1358, 1361, 1762, 1885, 2017, 2481, and 2708) were obtained from Champion Oncology. All these PDXs were established from primary lung adenocarcinoma tumors. The tumor tissues were cut into 4×2 mm pieces and implanted in the subcutaneous spaces of both flanks. When tumor volumes reached to 200+50 mm3, mice were randomly assigned to six experimental groups [control, chemo (cisplatin+gemcitabine), chemo+verteporfin, chemo+S3I-201, “all” (cisplatin+gemcitabine+verteporfin+S3I-201), and verteporfin+S3I-201] at 5 mice per group. Cisplatin (Sigma-Aldrich; #P4394), gemcitabine (Medkoo; #100410), S3I-201 (MedKoo; #202541), and verteporfin (Sigma-Aldrich; #1711461) were used to treat the mice. Cisplatin (2.5 mg/kg) and gemcitabine (120 mg/kg) were administrated via intraperitoneal injection once a week (22). […] Each tumor volume was measured every 3 days. Therapeutic efficacy was evaluated from percentage change of the tumor volume compared with the tumor size before treatment.

[3] = test system: MB 49, UPPL595 and BBN975; test: Cell proliferation, sphere formation and RT-qPCR of CSC markers in VP treated mouse UCB cell lines; type: cell-based; details: 1 μM
Protocol: Cell viability assay. Cell proliferation and viability were evaluated using alamarBlue™ Cell Viability Reagent (ThermoFischer Scientific). For cell proliferation assay, after cells (5×10^3/well) were seeded into 96-well plates with culture media containing 10% FBS, the optical density of each well was measured at desired time interval, following the manufacturers protocol. The absorbance was measured by a Spectra Max 250 Plate Reader (Molecular Devices). Cell viability were calculated as percentage over control. Sphere formation assay. Sphere formation was induced by culturing cells (2×10^4/well) in DMEM/Ham's F12 50/50 Mix (Mediatech) supplemented with B-27 (Life Technologies), 20 ng/mL FGF-basic (Peprotech), 20 ng/mL EGF (Peprotech). Cell culture was performed in ultra-low attachment 6 well plates (Corning, Lowell, USA) for 10 days. The medium was replaced every other day. Sphere formation was evaluated using the inverted phase-contrast microscope. RNA extraction and quantitative reverse transcriptase polymerase chain reaction (Q-RT-PCR). Total RNA from cell lines was isolated using the RNeasy Plus Mini Kit (Qiagen, Germantown, USA), according to the manufacturer's protocol. […] The expression levels were quantified relative to β-actin using the 2−ΔΔCt method.

[4] = test system: T24, BFTC905 and BFTC909; test: Lipid droplet quantification after VP, human UCB cell lines; type: cell-based; details: VP treated
Description: YAP1 influences the accumulation of lipid droplets in cancer cells. […] Therefore, apart from investigating the altered regulation of intracellular signaling cascades, the present inventors also studied cellular metabolism in response to YAP1 modulation. […] It was reported that FABP4 is a critical molecule in accumulation of lipid droplets in the intracellular compartments (45). […] It was also observed that when the culture media was supplemented with oleic acid (commonly used as an inducer for lipid droplet formation), there is an increase accumulation of lipid droplets in the YAP1 expressing cells compared to the KD cells (FIG. 29C). […] As increased amount of L-lactate correlated with more glycolysis and poor prognosis of cancer (46), the present inventors quantified L-lactate in mouse and human UCB cells with YAP1 modulation.

C=Cc1c(C)c2cc3nc(cc4[nH]c(cc5nc(cc1[nH]2)C(C)=C5CCC(=O)O)c(CCC(=O)OC)c4C)[C@@]1(C)C3=CC=C(C(=O)OC)[C@H]1C(=O)OC [verteporfin, 3-[(23S,24R)-14-ethenyl-5-(3-methoxy-3-oxopropyl)-22,23-bis(methoxycarbonyl)-4,10,15,24-tetramethyl-25,26,27,28-tetraazahexacyclo[16.6.1.13,6.18,11.113,16.019,24]octacosa-1,3,5,7,9,11(27),12,14,16,18(25),19,21-dodecaen-9-yl]propanoic acid]
STAT3 oligomerization (high molecular weight complexes) [1]: STAT3 oligomerization upon verteporfin treatment in a dose dependent manner; also recorded: high molecular weight complexes (regions surrounded by circles) were increased | YAP1 and total STAT3 protein expression [1]: both YAP1 and total STAT3 expressions were suppressed | YAP1 and total STAT3 protein expression ([1]; listed as Verteporfin): suppressed YAP1 and STAT3 expressions in H1299 and H1437 cells in a concentration dependent manner | tumor growth [2]: did not significantly affect tumor growth | cancer stemness (cell proliferation, sphere formation, CSC markers) [3]: inhibit the development of cancer stemness | accumulation of intracellular lipid droplets [4]: decreases the accumulation of intracellular lipid droplets
